In patent publication US20090069418A1, “Compositions and Methods for the Treatment of Disorders Associated with Aberrant Vasodilation” (priority 2007, published 2009):

How the values were obtained:
[1] = molecular target: T1, soluble epoxide hydrolase (Mus musculus, UniProt P34914); experiment: Soluble epoxide hydrolase activity assay in brain after systemic AUDA-BE ([3H]-tDPPO substrate); assay type: in vivo
T1 construct: from tissue; host or cells: mouse brain (C57Bl/6), cytosolic or peroxisomal fractions
T1 sequence (P34914 1-554): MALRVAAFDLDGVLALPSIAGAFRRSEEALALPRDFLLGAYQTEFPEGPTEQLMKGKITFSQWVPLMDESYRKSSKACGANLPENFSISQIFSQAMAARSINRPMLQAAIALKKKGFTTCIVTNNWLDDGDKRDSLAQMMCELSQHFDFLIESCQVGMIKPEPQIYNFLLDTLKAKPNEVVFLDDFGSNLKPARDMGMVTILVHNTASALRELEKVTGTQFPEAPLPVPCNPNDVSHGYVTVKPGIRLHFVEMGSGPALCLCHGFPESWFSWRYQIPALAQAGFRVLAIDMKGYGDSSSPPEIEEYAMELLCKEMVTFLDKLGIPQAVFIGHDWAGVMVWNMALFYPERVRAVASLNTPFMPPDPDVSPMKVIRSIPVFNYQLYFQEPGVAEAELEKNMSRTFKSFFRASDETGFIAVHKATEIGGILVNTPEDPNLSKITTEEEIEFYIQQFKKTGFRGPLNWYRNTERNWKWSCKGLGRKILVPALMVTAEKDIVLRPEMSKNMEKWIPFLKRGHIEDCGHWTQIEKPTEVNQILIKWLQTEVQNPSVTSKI
Protocol: Rate of hydration of tDPPO is determined by liquid scintillation spectroscopy after differential extraction of the epoxide and diol. Briefly, cytosolic or peroxisomal fractions were incubated at 37° C. in 100 μL incubation mixtures containing sodium phosphate buffer (90 mmol/L, pH 7.4) and tDPPO (1 to 50 μmol/L in 1 μL dimethylformamide). Incubations were stopped after 5 minutes with the addition of 60 μL methanol and 200 μL isooctane. Zero-time and zero-protein incubations served as blanks. Incubations were vortexed vigorously to extract the substrate into the isooctane (the diol metabolite remains in the aqueous phase). A known aliquot of the aqueous phase was removed and added to 1 mL scintillation cocktail for scintillation counting. Extraction efficiency exceeded 91%.
It should be noted that these sEH inhibitors are reversible transition state inhibitors. Thus, the levels of inhibition are certain to be above those detected due to dilution of the sample during work up.

epoxide hydrolase = experiment: Hydrolase activity in brain tissue ex vivo, conversion of 14,15-EET to 14,15-DHET (ELISA); assay type: biochemical, mouse; conditions: both WT and KO brain tissue
Protocol: Total 14,15-DHET in blood was measured with a commercial ELISA (Detroit R&D, Inc, Detroit, Mich.) (Koerner et al. (2007) J. Neurosci., 27:4642-4649). Briefly, plasma lipids were extracted 3 times with ethyl acetate under acidic conditions (pH 3 to 4), followed by saponification with 20% KOH. Samples were dried and resuspended in methanol, and 14,15-DHET concentration was measured according to the manufacturer's instructions. The ELISA was also used to measure hydrolase activity in brain tissue (perfused to remove blood) incubated with 1 μM 14,15-EET for 30 minutes. Brian tissue was homogenized in 4 volumes of ice-cold buffer (20 mmol/L Tris HCL pH 7.4, 0.32 mol/L sucrose, 1 mmol/L EDTA), centrifuged at 1000 g for 10 minutes, and supernatant was further centrifuged at 10,000 g for 20 minutes.

Compound: CCCCOC(=O)CCCCCCCCCCCNC(=O)NC12CC3CC(CC(C3)C1)C2 [AUDA-BE, 12-(3-adamantane-1-yl-ureido)-dodecanoic acid butyl ester]
- average brain sEH activity over 24 hours ([1]; AUDA-BE 10 mg/kg intraperitoneally, 1, 3, 6 and 24 hours, vehicle 1.92±0.06 nmol/mg): 1.56±0.13 nmol/mg protein
- inhibition at 10 mg/kg ([1]; mouse, ip, read-out: inhibition of brain sEH activity): ≥ 20%
- metabolism of 14,15-EET to 14,15-DHET in brain tissue (epoxide hydrolase): inhibited
